In brackets after ≈: the same amount, converted by molar mass.
Assays:
B. cereus ATCC 10876 = experiment: MIC, micro-dilution broth method; format: cell-based, Bacillus cereus; conditions: Gram-positive bacteria, micro-dilution broth; for MIC: Bacillus cereus, ATCC10876, read-out: MIC, B. cereus ATCC 10876
Procedure: (§1) Samples of complexes (about 20 mg) were digested in a concentrated mixture of 36% HCl (1 mL) and 65% HNO3 (6 mL). The contents of Cd (II) in the solid complexes were determined with an F-AAS spectrometer (Analytik Jena, contraAA 300, Jena, Germany) with a continuous source of light and using an air/acetylene flame (Analytik Jena, contraAA 300). Absorbances were measured at the analytical spectral lines at 228.8 nm for Cd (II). The limit of quantification was 0.004 mg/L for Cd (II). The solid samples were decomposed using an Anton Paar Multiwave 3000 (Graz, Austria) closed-system instrument. Mineralization was carried out for 45 min at 240 °C under a pressure of 60 bar. The contents of carbon, hydrogen, and nitrogen were determined with an instrument from Vario Micro Company Elementar Analysensysteme GmbH (Langenselbold, Germany). FTIR spectra were recorded with an IR Tracer-100 Schimadzu Spectrometer (4000–600 cm^−1 with an accuracy of recording of 1 cm^−1, Kyoto, Japan) using KBr pellets. The thermal analyses were carried out with a Netzsch STA 449 F1 Jupiter thermoanalyzer (Netzsch-Geratebau GmbH, Selb, Germany) coupled with a Netzsch Aeolos Quadro QMS 403 mass spectrometer (Netzsch-Geratebau GmbH, Selb, Germany). The samples were heated up to 1000 °C in corundum crucibles with a heating rate of 10 °C/min in an atmosphere of synthetic air (20% O2, 80% N2). The cytotoxic effects of the compounds were evaluated using glioblastoma (T98G), neuroblastoma (SK-N-AS), and lung adenocarcinoma (A549) cell lines and normal human skin fibroblasts (CCD-1059Sk). T98G and SK-N-AS cells were cultured in high-glucose DMEM and A549 cells were cultured in DMEM/F12, while CCD-1059Sk cells were cultured in MEM. All media were supplemented with 10% (FBS), 100 U/mL of penicillin, and […] of streptomycin (PenStrep). Cells were incubated at 37 °C in a humidified atmosphere of 5% CO2. Stock solutions were prepared by dissolving the compounds in sterile dimethyl sulfoxide (DMSO) to obtain a concentration of 50 mg/mL. The cells were seeded into sterile 96-well plates (Nunc) at a density of 1 × 10^5 cells/mL. After 24 h of incubation, the medium was removed from each well, and then the cells were incubated for the next 24 h with different concentrations of the tested compounds (1–100 µg/mL) in their respective media containing 2% FBS. The cytotoxicity of the compounds was evaluated using an MTT assay, which was based on the conversion of 3-(4,5-dimethylthiazol-2-yl)-2,5-diphenyltetrazolium bromide (MTT) into dark-blue formazan crystals. Briefly, after 24 h of incubation of the cells with varying concentrations of the tested compounds, all culture media were removed from the plates. The cells were washed with PBS, and then 100 µL of medium containing 10% MTT solution (5 mg/mL) was added to each well. After 3 h of incubation, 100 µL (per well) of 10% SDS buffer solution was added to solubilize the formazan crystals. After overnight incubation, the absorbance was measured at 570 nm using a microplate reader (Epoch, BioTek Instruments). Experiments were repeated twice, and the measurements in each experiment were run in triplicate. The viability of the investigated cells was expressed as the percentage of the viability of the untreated cells, and the results were transformed into IC50 values (expressed as mean ± SD). The complexes were screened for antibacterial and antifungal activity by using the micro-dilution broth method with Mueller–Hinton broth for the growth of bacteria or Mueller–Hinton broth with 2% glucose for the growth of fungi. […]

[1] = system: S. typhimurium ATCC 14028; experiment: MIC, micro-dilution broth method; format: cell-based, Salmonella Typhimurium; conditions: Gram-negative bacteria; for MIC: Salmonella enterica
Procedure: as §1

B. subtilis ATCC 6633 = experiment: MIC, micro-dilution broth method; format: cell-based, Bacillus subtilis; conditions: Gram-positive bacteria, micro-dilution broth; for MIC: Bacillus subtilis, ATCC6633, read-out: MIC, B. subtilis ATCC 6633
Procedure: as §1

C. glabrata ATCC 2091 = experiment: MIC, micro-dilution broth method; format: cell-based; conditions: for MIC: Nakaseomyces glabratus, ATCC2091, read-out: MIC, C. glabrata ATCC 2091
Procedure: as §1

[2] = system: S. epidermidis ATCC 12228; experiment: MIC, micro-dilution broth method; format: cell-based, Staphylococcus epidermidis; conditions: Gram-positive bacteria, micro-dilution broth; for MIC: Staphylococcus epidermidis, ATCC12228, read-out: MIC, S. epidermidis ATCC 12228
Procedure: as §1

E. coli ATCC 25922 = experiment: MIC, micro-dilution broth method; format: cell-based, Escherichia coli; conditions: for MIC: Escherichia coli, ATCC25922, Gram-negative bacteria
Procedure: as §1

[3] = system: C. parapsilosis ATCC 22019; experiment: MIC, micro-dilution broth method; format: cell-based, Candida parapsilosis; conditions: Yeasts, micro-dilution broth with 2% glucose; for MIC: Lodderomyces parapsilosis, ATCC22019
Procedure: as §1

E. faecalis ATCC 29212 = experiment: MIC, micro-dilution broth method; format: cell-based, Enterococcus faecalis; conditions: Gram-positive bacteria, micro-dilution broth; for MIC: Enterococcus faecalis, ATCC29212, read-out: MIC, E. faecalis ATCC 29212
Procedure: as §1

P. aeruginosa ATCC 9027 = experiment: MIC, micro-dilution broth method; format: cell-based, Pseudomonas aeruginosa; conditions: for MIC: Pseudomonas aeruginosa, ATCC9027, Gram-negative bacteria
Procedure: as §1

C. albicans ATCC 102231 = experiment: MIC, micro-dilution broth method; format: cell-based, Candida albicans; conditions: for MIC: Candida albicans, ATCC102231, read-out: MIC, C. albicans ATCC 102231
Procedure: as §1

M. luteus ATCC 10240 = experiment: MIC, micro-dilution broth method; format: cell-based, Micrococcus luteus; conditions: Gram-positive bacteria, micro-dilution broth; for MIC: Micrococcus luteus, ATCC10240, read-out: MIC, M. luteus ATCC 10240
Procedure: as §1

K. pneumoniae ATCC 13883 = experiment: MIC, micro-dilution broth method; format: cell-based, Klebsiella pneumoniae; conditions: for MIC: Klebsiella pneumoniae, ATCC13883, Gram-negative bacteria
Procedure: as §1

[4] = Solubility in culture medium (MTT assay); format: physicochemical; conditions: culture medium of the MTT assay
Procedure: Samples of complexes (about 20 mg) were digested in a concentrated mixture of 36% HCl (1 mL) and 65% HNO3 (6 mL). The contents of Cd (II) in the solid complexes were determined with an F-AAS spectrometer (Analytik Jena, contraAA 300, Jena, Germany) with a continuous source of light and using an air/acetylene flame (Analytik Jena, contraAA 300). Absorbances were measured at the analytical spectral lines at 228.8 nm for Cd (II). The limit of quantification was 0.004 mg/L for Cd (II). The solid samples were decomposed using an Anton Paar Multiwave 3000 (Graz, Austria) closed-system instrument. Mineralization was carried out for 45 min at 240 °C under a pressure of 60 bar. The contents of carbon, hydrogen, and nitrogen were determined with an instrument from Vario Micro Company Elementar Analysensysteme GmbH (Langenselbold, Germany). FTIR spectra were recorded with an IR Tracer-100 Schimadzu Spectrometer (4000–600 cm^−1 with an accuracy of recording of 1 cm^−1, Kyoto, Japan) using KBr pellets. […] The cytotoxic effects of the compounds were evaluated using glioblastoma (T98G), neuroblastoma (SK-N-AS), and lung adenocarcinoma (A549) cell lines and normal human skin fibroblasts (CCD-1059Sk). […] The cytotoxicity of the compounds was evaluated using an MTT assay, which was based on the conversion of 3-(4,5-dimethylthiazol-2-yl)-2,5-diphenyltetrazolium bromide (MTT) into dark-blue formazan crystals. […]

P. mirabilis ATCC 12453 = experiment: MIC, micro-dilution broth method; format: cell-based, Proteus mirabilis; conditions: for MIC: Proteus mirabilis, ATCC12453, Gram-negative bacteria
Procedure: as §1

S. aureus ATCC 25923 = experiment: MIC, micro-dilution broth method; format: cell-based, Staphylococcus aureus; conditions: Gram-positive bacteria, micro-dilution broth; for MIC: Staphylococcus aureus, ATCC25923, read-out: MIC, S. aureus ATCC 25923
Procedure: as §1

A549 cells = experiment: MTT cytotoxicity assay, lung adenocarcinoma A549; format: cell-based, human; conditions: Homo sapiens; lung carcinoma A549, MTT assay after 24 h of incubation; read-out: IC50 ± SD, A549
Procedure: as §1

CCD-1059Sk cells = experiment: MTT cytotoxicity assay, normal human skin fibroblasts CCD-1059Sk; format: cell-based; conditions: normal human fibroblasts CCD-1059Sk, MTT assay after 24 h of incubation; read-out: IC50 ± SD, CCD-1059-Sk
Procedure: as §1

SK-N-AS cells = experiment: MTT cytotoxicity assay, neuroblastoma SK-N-AS; format: cell-based, human; conditions: Homo sapiens, SK-N-AS, 24 h, MTT assay after 24 h of incubation, read-out: IC50 ± SD, SK-N-AS
Procedure: as §1

T98G cells = experiment: MTT cytotoxicity assay, glioblastoma T98G; format: cell-based, human; conditions: Homo sapiens, MTT assay after 24 h of incubation, read-out: IC50 ± SD, T98G
Procedure: as §1

[5] = Yeasts, micro-dilution broth with 2% glucose

| SMILES | MIC (B. cereus ATCC 10876) [µg/mL] | IC50 (A549 cells) [µM] | MIC [1] [µg/mL] | MIC (B. subtilis ATCC 6633) [µg/mL] | MIC (C. glabrata ATCC 2091) [µg/mL] | MIC [2] [µg/mL] | MIC (E. coli ATCC 25922) [µg/mL] | MIC [3] [µg/mL] | MIC (E. faecalis ATCC 29212) [µg/mL] | IC50 (CCD-1059Sk cells) [µM] | MIC (P. aeruginosa ATCC 9027) [µg/mL] | MIC (C. albicans ATCC 102231) [µg/mL] | IC50 (SK-N-AS cells) [µM] | MIC (M. luteus ATCC 10240) [µg/mL] | IC50 (T98G cells) [µM] | MIC (K. pneumoniae ATCC 13883) [µg/mL] | MIC (P. mirabilis ATCC 12453) [µg/mL] | MIC (S. aureus ATCC 25923) [µg/mL] | also measured |
| --- | --- | --- | --- | --- | --- | --- | --- | --- | --- | --- | --- | --- | --- | --- | --- | --- | --- | --- | --- |
| O.[Cl][Cd][Cl].c1cc(-c2nc3ccncc3[nH]2)ccn1 [C1, Cd(L1)Cl2∙H2O] |  |  |  |  |  |  |  |  |  |  |  |  |  |  |  |  |  |  | MIC, B. cereus ATCC 10876 (B. cereus ATCC 10876): 500 µg/mL; MIC, S. typhimurium ATCC 14028 [1]: 1000 µg/mL; MIC, B. subtilis ATCC 6633 (B. subtilis ATCC 6633): 7.8 µg/mL; MIC, C. glabrata ATCC 2091 (C. glabrata ATCC 2091; [5]): 62.5 µg/mL; MIC, S. epidermidis ATCC 12228 [2]: 250 µg/mL; MIC, E. coli ATCC 25922 (E. coli ATCC 25922; Gram-negative bacteria): 1000 µg/mL; MIC, C. parapsilosis ATCC 22019 [3]: 15.6 µg/mL; MIC, E. faecalis ATCC 29212 (E. faecalis ATCC 29212): 125 µg/mL; MIC, P. aeruginosa ATCC 9027 (P. aeruginosa ATCC 9027; Gram-negative bacteria): >1000 µg/mL; MIC, C. albicans ATCC 102231 (C. albicans ATCC 102231; [5]): 500 µg/mL; MIC, M. luteus ATCC 10240 (M. luteus ATCC 10240): 7.8 µg/mL; MIC, K. pneumoniae ATCC 13883 (K. pneumoniae ATCC 13883; Gram-negative bacteria): 1000 µg/mL; solubility in culture medium [4]: Not determined due to low solubility in culture medium; MIC, P. mirabilis ATCC 12453 (P. mirabilis ATCC 12453; Gram-negative bacteria): 1000 µg/mL; MIC, S. aureus ATCC 25923 (S. aureus ATCC 25923): 500 µg/mL |
| c1cnc2[nH]c(-c3ccncc3)nc2c1 [L2] | 250 (≈ 1.27 mM) | 220 ± 11 | 1000 (≈ 5.1 mM) | 500 (≈ 2.55 mM) | > 1000 | 1000 (≈ 5.1 mM) | 1000 (≈ 5.1 mM) | > 1000 | 1000 (≈ 5.1 mM) | > 509 | > 1000 | 1000 (≈ 5.1 mM) | 415 ± 17 | 250 (≈ 1.27 mM) | 178 ± 7.3 | > 1000 | 1000 (≈ 5.1 mM) | 1000 (≈ 5.1 mM) |  |
| c1cncc(-c2nc3cccnc3[nH]2)c1 [L3] | 1000 (≈ 5.1 mM) | > 509 | > 1000 | 1000 (≈ 5.1 mM) | > 1000 | > 1000 | > 1000 | 1000 (≈ 5.1 mM) | > 1000 | > 509 | > 1000 | > 1000 | > 509 | 500 (≈ 2.55 mM) | > 509 | > 1000 | > 1000 | > 1000 |  |
| Brc1cnc2[nH]c(-c3cccnc3)nc2c1 [L4] | 1000 (≈ 3.63 mM) | > 362 | > 1000 | 1000 (≈ 3.63 mM) | > 1000 | 1000 (≈ 3.63 mM) | > 1000 | 1000 (≈ 3.63 mM) | 1000 (≈ 3.63 mM) | > 362 | > 1000 | 500 (≈ 1.82 mM) | > 362 | > 1000 | > 362 | > 1000 | > 1000 | > 1000 |  |

Reference: paper PMC9412362, “Design, Synthesis, and Characterization of Novel Coordination Compounds of Benzimidazole Derivatives with Cadmium” (Pharmaceutics, 2022)
